PubChem BioAssay (NCI)
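Tested at 5 concentrations; 48 h exposure; 96-well plates; endpoints linearly interpolated, else capped at highest concentration. GI50 = concentration required for 50% inhibition of growth. Definition used: TGI = concentration required for complete inhibition of growth.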

Tested on: RPMI-8226 leukemia
Experiment: NCI anticancer screen, dose series, 48 h

c1cc2n(n1)CCN2 and O=c1ccn(C2CC(O)C(CO)O2)c(=O)[nH]1 (centres undefined) cannot be ordered by TGI: > 10000 µM for the first, > 5000 µM for the second.

First: COc1cc(Nc2c(C#N)cnc3cc(OCCCN4CCN(C)CC4)c(OC)cc23)c(Cl)cc1Cl
Second: CCOC(=O)c1cc2c(n1Cc1cccc(OC)c1)-c1oncc1CCC2
The TGI of the first is lower: 13.9 µM for the first, > 43 µM for the second.

O=CN/C=C/c1cccc(O)c1 and COc1c(O)cc2oc(-c3ccc(O)cc3)cc(=O)c2c1O cannot be ordered by TGI: > 100 µM for the first, > 100 µM for the second.

Compared with Nc1ccc2c(SCc3ccc([N+](=O)[O-])cc3)c3ccccc3nc2c1, O=C(Nc1ccncc1)C(=O)c1cn(Cc2ccc(Cl)cc2)c2ccccc12 is higher in TGI: 14.2 µM for the first, > 100 µM for the second.

Compared with COC1=CC(c2ccc[nH]2)=N/C1=C\c1[nH]c(C)c(C(=O)CCCCC(=O)NC(C)(C)C)c1C, O=C(N/C(=C/c1ccc(Cl)cc1Cl)c1nc2ccccc2s1)c1ccccc1 is higher in TGI: 1.64 µM for the first, > 100 µM for the second.

First: COc1cc(Nc2c(C#N)cnc3cc(OCCCN4CCN(C)CC4)c(OC)cc23)c(Cl)cc1Cl
Second: CCOC(=O)c1cc2c(n1Cc1cccc(OC)c1)-c1oncc1CCC2
The GI50 of the first is 2.9-fold higher: 5.32 µM for the first, 1.81 µM for the second.

First: COC1=CC(c2ccc[nH]2)=N/C1=C\c1[nH]c(C)c(C(=O)CCCCC(=O)NC(C)(C)C)c1C
Second: O=C(Nc1ccncc1)C(=O)c1cn(Cc2ccc(Cl)cc2)c2ccccc12
The GI50 of the first is 5.7-fold higher: 0.237 µM for the first, 0.0416 µM for the second.

Going from O=c1ccn(C2CC(O)C(CO)O2)c(=O)[nH]1 (centres undefined) to O=c1cc(-c2ccccc2F)[nH]c2ccc(N3CCCC3)cc12, the GI50 falls from 1190 µM to < 0.001 µM.

Tested on: SK-MEL-28 melanoma
Experiment: NCI anticancer screen, dose series, 48 h

Compared with C[C@]12CCc3sc(NCCc4ccccc4)nc3C1=CC[C@@H]1[C@@H]2CC[C@]2(C)C(=O)CC[C@@H]12, CCOC(=O)c1cc2c(n1Cc1cccc(OC)c1)-c1oncc1CCC2 is 1.6-fold higher in GI50: 3.37 µM for the first, 5.55 µM for the second.

First: COc1cccc(C2=C(c3c(C)n(C)c4ccccc34)C(=O)NC2=O)c1
Second: CNCCCn1c2c(c3ccc([N+](=O)[O-])cc3c1=O)C(=O)c1cc(OC)cnc1-2
The GI50 of the first is 64-fold higher: 24.9 µM for the first, 0.387 µM for the second.

Going from CCN(Cc1ccc(F)cc1)c1ccc(CO)c(F)c1 to O=C(Nc1ccncc1)C(=O)c1cn(Cc2ccc(Cl)cc2)c2ccccc12, the GI50 falls from 32 µM to 0.0711 µM (450-fold).

Going from O=C1C(N2CC2)=C(N2CC2)C(=O)C(N2CC2)=C1N1CC1 to COc1ccc(/C=C/C(=O)c2ccc(O)c(CN3CCN(c4cc5c(cc4F)c(=O)c(C(=O)O)cn5C4CC4)CC3)c2)cc1, the GI50 rises from 0.838 µM to 1.72 µM (2.1-fold).

First: CCCCC[C@H]1C/C=C2/C(=O)C=C[C@@H]2C/C=C\CCCC(=O)O[C@@H](CCCCC)C/C=C2/C(=O)C=C[C@@H]2C/C=C\CCCC(=O)O1
Second: O=c1cc(-c2ccccc2F)[nH]c2ccc(N3CCCC3)cc12
The GI50 of the first is 420-fold lower: 0.196 µM for the first, 82.3 µM for the second.

O=C(Nc1cccc(-n2cc(-c3ccncc3)c(-c3cc(O)cc(Cl)c3)n2)c1)Nc1ccc(Cl)c(C(F)(F)F)c1 and COc1cc(Nc2c(C#N)cnc3cc(OCCCN4CCN(C)CC4)c(OC)cc23)c(Cl)cc1Cl are within 1.5-fold of each other in GI50: 2.01 µM for the first, 2.13 µM for the second.

First: CCCc1cc(=O)[nH]c(-n2nc(C)cc2C)n1
Second: COC1=CC(c2ccc[nH]2)=N/C1=C\c1[nH]c(C)c(C(=O)CCCCC(=O)NC(C)(C)C)c1C
The GI50 of the first is 2.4-fold higher: 3.8 µM for the first, 1.59 µM for the second.

O=c1ccn(C2CC(O)C(CO)O2)c(=O)[nH]1 (centres undefined) was tested, and the GI50 was > 5000 µM.

Going from C[C@]12CCc3sc(NCCc4ccccc4)nc3C1=CC[C@@H]1[C@@H]2CC[C@]2(C)C(=O)CC[C@@H]12 to CCOC(=O)c1cc2c(n1Cc1cccc(OC)c1)-c1oncc1CCC2, the TGI rises from 18.9 µM to > 100 µM.

Compared with COc1cccc(C2=C(c3c(C)n(C)c4ccccc34)C(=O)NC2=O)c1, CNCCCn1c2c(c3ccc([N+](=O)[O-])cc3c1=O)C(=O)c1cc(OC)cnc1-2 is lower in TGI: > 25 µM for the first, 2.1 µM for the second.

First: CCN(Cc1ccc(F)cc1)c1ccc(CO)c(F)c1
Second: Nc1ccc2c(SCc3ccc([N+](=O)[O-])cc3)c3ccccc3nc2c1
The TGI of the first is higher: > 100 µM for the first, 33.5 µM for the second.

CN(C)CCNC(=O)c1cc([N+](=O)[O-])cc2c1Oc1ccccc1O2 and O=C(Nc1ccncc1)C(=O)c1cn(Cc2ccc(Cl)cc2)c2ccccc12 cannot be ordered by TGI: > 100 µM for the first, > 100 µM for the second.

First: O=C1C(N2CC2)=C(N2CC2)C(=O)C(N2CC2)=C1N1CC1
Second: COc1ccc(/C=C/C(=O)c2ccc(O)c(CN3CCN(c4cc5c(cc4F)c(=O)c(C(=O)O)cn5C4CC4)CC3)c2)cc1
The TGI of the first is lower: 2.32 µM for the first, > 100 µM for the second.

First: CCCCC[C@H]1C/C=C2/C(=O)C=C[C@@H]2C/C=C\CCCC(=O)O[C@@H](CCCCC)C/C=C2/C(=O)C=C[C@@H]2C/C=C\CCCC(=O)O1
Second: COc1cc2oc3cc(=O)cc4oc(-c5ccccc5)cc(c2c2c1CCC(c1ccccc1)O2)c43 (centres undefined)
The TGI of the first is lower: 0.675 µM for the first, > 100 µM for the second.

Going from O=C(Nc1cccc(-n2cc(-c3ccncc3)c(-c3cc(O)cc(Cl)c3)n2)c1)Nc1ccc(Cl)c(C(F)(F)F)c1 to O=C(N/C(=C/c1ccc(Cl)cc1Cl)c1nc2ccccc2s1)c1ccccc1, the TGI rises from 6.2 µM to 34.2 µM (5.5-fold).

Going from CCCc1cc(=O)[nH]c(-n2nc(C)cc2C)n1 to COC1=CC(c2ccc[nH]2)=N/C1=C\c1[nH]c(C)c(C(=O)CCCCC(=O)NC(C)(C)C)c1C, the TGI falls from 40.4 µM to 3.2 µM (13-fold).

c1cc2n(n1)CCN2 and O=c1ccn(C2CC(O)C(CO)O2)c(=O)[nH]1 (centres undefined) cannot be ordered by TGI: > 10000 µM for the first, > 5000 µM for the second.

Going from COc1cc(Nc2c(C#N)cnc3cc(OCCCN4CCN(C)CC4)c(OC)cc23)c(Cl)cc1Cl to O=c1cc(-c2ccccc2F)[nH]c2ccc(N3CCCC3)cc12, the TGI rises from 5.08 µM to > 100 µM.

O=CN/C=C/c1cccc(O)c1 and COc1c(O)cc2oc(-c3ccc(O)cc3)cc(=O)c2c1O cannot be ordered by TGI: > 100 µM for the first, > 100 µM for the second.

Tested on: SR leukemia
Experiment: NCI anticancer screen, dose series, 48 h

Going from C[C@]12CCc3sc(NCCc4ccccc4)nc3C1=CC[C@@H]1[C@@H]2CC[C@]2(C)C(=O)CC[C@@H]12 to CCOC(=O)c1cc2c(n1Cc1cccc(OC)c1)-c1oncc1CCC2, the GI50 falls from 3.06 µM to 0.301 µM (10-fold).

Compared with COc1cccc(C2=C(c3c(C)n(C)c4ccccc34)C(=O)NC2=O)c1, CNCCCn1c2c(c3ccc([N+](=O)[O-])cc3c1=O)C(=O)c1cc(OC)cnc1-2 is 960-fold lower in GI50: 11.8 µM for the first, 0.0123 µM for the second.

Compared with CCN(Cc1ccc(F)cc1)c1ccc(CO)c(F)c1, O=C(Nc1ccncc1)C(=O)c1cn(Cc2ccc(Cl)cc2)c2ccccc12 is 510-fold lower in GI50: 15.1 µM for the first, 0.0298 µM for the second.

Going from O=C1C(N2CC2)=C(N2CC2)C(=O)C(N2CC2)=C1N1CC1 to COc1ccc(/C=C/C(=O)c2ccc(O)c(CN3CCN(c4cc5c(cc4F)c(=O)c(C(=O)O)cn5C4CC4)CC3)c2)cc1, the GI50 rises from 0.0345 µM to 0.354 µM (10-fold).

Compared with CCCCC[C@H]1C/C=C2/C(=O)C=C[C@@H]2C/C=C\CCCC(=O)O[C@@H](CCCCC)C/C=C2/C(=O)C=C[C@@H]2C/C=C\CCCC(=O)O1, O=c1cc(-c2ccccc2F)[nH]c2ccc(N3CCCC3)cc12 is lower in GI50: 0.0825 µM for the first, < 0.001 µM for the second.

O=C(Nc1cccc(-n2cc(-c3ccncc3)c(-c3cc(O)cc(Cl)c3)n2)c1)Nc1ccc(Cl)c(C(F)(F)F)c1 and COc1cc(Nc2c(C#N)cnc3cc(OCCCN4CCN(C)CC4)c(OC)cc23)c(Cl)cc1Cl are within 1.5-fold of each other in GI50: 2.01 µM for the first, 1.35 µM for the second.

First: CCCc1cc(=O)[nH]c(-n2nc(C)cc2C)n1
Second: COC1=CC(c2ccc[nH]2)=N/C1=C\c1[nH]c(C)c(C(=O)CCCCC(=O)NC(C)(C)C)c1C
The GI50 of the first is 8.8-fold higher: 3.46 µM for the first, 0.395 µM for the second.

For O=c1ccn(C2CC(O)C(CO)O2)c(=O)[nH]1 (centres undefined), the GI50 was > 5000 µM.

First: C[C@]12CCc3sc(NCCc4ccccc4)nc3C1=CC[C@@H]1[C@@H]2CC[C@]2(C)C(=O)CC[C@@H]12
Second: CCOC(=O)c1cc2c(n1Cc1cccc(OC)c1)-c1oncc1CCC2
The TGI of the first is higher: > 100 µM for the first, 26.8 µM for the second.

First: COc1cccc(C2=C(c3c(C)n(C)c4ccccc34)C(=O)NC2=O)c1
Second: CNCCCn1c2c(c3ccc([N+](=O)[O-])cc3c1=O)C(=O)c1cc(OC)cnc1-2
The TGI of the first is higher: > 25 µM for the first, 1.75 µM for the second.

Compared with CCN(Cc1ccc(F)cc1)c1ccc(CO)c(F)c1, Nc1ccc2c(SCc3ccc([N+](=O)[O-])cc3)c3ccccc3nc2c1 is 8.9-fold lower in TGI: 45.1 µM for the first, 5.05 µM for the second.

CN(C)CCNC(=O)c1cc([N+](=O)[O-])cc2c1Oc1ccccc1O2 and O=C(Nc1ccncc1)C(=O)c1cn(Cc2ccc(Cl)cc2)c2ccccc12 cannot be ordered by TGI: > 100 µM for the first, > 100 µM for the second.

Going from O=C1C(N2CC2)=C(N2CC2)C(=O)C(N2CC2)=C1N1CC1 to COc1ccc(/C=C/C(=O)c2ccc(O)c(CN3CCN(c4cc5c(cc4F)c(=O)c(C(=O)O)cn5C4CC4)CC3)c2)cc1, the TGI falls from > 100 µM to 14.9 µM.

Compared with CCCCC[C@H]1C/C=C2/C(=O)C=C[C@@H]2C/C=C\CCCC(=O)O[C@@H](CCCCC)C/C=C2/C(=O)C=C[C@@H]2C/C=C\CCCC(=O)O1, COc1cc2oc3cc(=O)cc4oc(-c5ccccc5)cc(c2c2c1CCC(c1ccccc1)O2)c43 (centres undefined) is higher in TGI: 0.52 µM for the first, > 100 µM for the second.

Compared with O=C(Nc1cccc(-n2cc(-c3ccncc3)c(-c3cc(O)cc(Cl)c3)n2)c1)Nc1ccc(Cl)c(C(F)(F)F)c1, O=C(N/C(=C/c1ccc(Cl)cc1Cl)c1nc2ccccc2s1)c1ccccc1 is higher in TGI: 5.18 µM for the first, > 100 µM for the second.

First: CCCc1cc(=O)[nH]c(-n2nc(C)cc2C)n1
Second: COC1=CC(c2ccc[nH]2)=N/C1=C\c1[nH]c(C)c(C(=O)CCCCC(=O)NC(C)(C)C)c1C
The TGI of the first is higher: > 100 µM for the first, 2.35 µM for the second.

c1cc2n(n1)CCN2 and O=c1ccn(C2CC(O)C(CO)O2)c(=O)[nH]1 (centres undefined) cannot be ordered by TGI: > 9010 µM for the first, > 5000 µM for the second.

Compared with COc1cc(Nc2c(C#N)cnc3cc(OCCCN4CCN(C)CC4)c(OC)cc23)c(Cl)cc1Cl, COc1c(O)cc2oc(-c3ccc(O)cc3)cc(=O)c2c1O is 14-fold higher in TGI: 4.51 µM for the first, 63.6 µM for the second.

For O=CN/C=C/c1cccc(O)c1, the TGI was > 75.2 µM.
